The values that follow come from patent publication US20100311741A1, “Bicyclosulfonyl Acid (BCSA) Compounds and Their Use as Therapeutic Agents” (INHIBOX LTD., priority 2007, published 2010).

By inhibition is commonly meant the relative decrease from the control value, in per cent. By melting point is commonly meant the temperature of the solid-liquid transition. What is called EC50 is the concentration giving half of the maximal effect.

The target in data set [1] is T1, Human recombinant TACE enzyme (Homo sapiens, UniProt P78536).
T1 construct: purchased R and D Systems, Abingdon, UK 930-ADB
T1 sequence (P78536 215-671 limits assumed): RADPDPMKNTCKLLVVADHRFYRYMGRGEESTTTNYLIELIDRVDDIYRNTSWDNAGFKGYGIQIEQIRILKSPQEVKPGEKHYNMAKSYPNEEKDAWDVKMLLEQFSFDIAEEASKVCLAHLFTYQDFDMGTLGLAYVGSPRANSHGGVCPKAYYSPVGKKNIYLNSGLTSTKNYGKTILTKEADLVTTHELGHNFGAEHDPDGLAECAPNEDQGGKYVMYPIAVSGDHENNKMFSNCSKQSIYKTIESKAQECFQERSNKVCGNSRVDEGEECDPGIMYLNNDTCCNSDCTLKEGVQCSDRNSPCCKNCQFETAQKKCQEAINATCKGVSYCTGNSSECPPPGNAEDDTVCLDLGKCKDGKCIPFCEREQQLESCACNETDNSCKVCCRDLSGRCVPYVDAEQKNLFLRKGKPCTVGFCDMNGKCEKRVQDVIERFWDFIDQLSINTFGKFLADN
Put plainly: TACE assay (fluorescent peptide substrate). The data set is classed as biochemical. The following applies: 3.5 h; single concentration @100 (μM); read-out: Av. TACE Inhibition, % @100. As to the method: The activity of the compounds as TACE inhibitors was determined using a commercially available peptide substrate (M-2255, Bachem UK Ltd, St. Helens, UK) and recombinant TACE enzyme (930-ADB, R and D Systems, Abingdon, UK). Human recombinant TACE enzyme (5 ng/30 μL) was incubated for 3.5 hour at 37° C. in assay buffer (25 mM Tris.HCl, 2.5 μM ZnCl2, 0.005% Brij 35, pH 8.0) with 5 μM substrate in the presence of test compound (TACE inhibitor). The extent of TACE activity was determined by measurement of the fluorescence (excitation 355 nm, emission 460 nm).
(§1) Percent activity (% activity) for each test compound was calculated as:
(§2) % activity={(S^C−B)/(S^o−B)}×100
(§3) wherein S^C denotes signal measured in the presence of enzyme and the compound being tested, S^o denotes signal measured in the presence of enzyme but in the absence of the compound being tested, and B denotes the background signal measured in the absence of both enzyme and compound being tested. The IC50 corresponds to the concentration which achieves 50% activity.

A further data set relates to HDAC (HeLa cell extract). Put plainly: Selectivity assay: HDAC activity, fluorescent assay (Fluor de Lys). Format: biochemical. The following applies: for Av. HDAC Inhibition, % @100: single concentration @100 (μM). As to the method: Alternatively, the activity of the compounds as HDAC inhibitors was determined using a commercially available fluorescent assay kit (Fluor de Lys™, BioMol Research Labs, Inc., Plymouth Meeting, USA). HeLa extract was incubated for 1 hour at 37° C. in assay buffer (25 mM HEPES, 137 mM NaCl, 2.7 mM KCl, 1 mM MgCl2, pH 8.0) with 15 μM acetylated substrate in the presence of test compound (HDAC inhibitor). The extent of deacetylation was determined by the addition of 50 μL of a 1-in-500 dilution of Developer, and subsequent measurement of the fluorescence (excitation 355 nm, emission 460 nm), according to the instructions provided with the kit.
The HeLa cell extract was made from HeLa cells (ATCC Ref. No. CCL-2) by freeze-thawing three times in 60 mM Tris.HCl, pH 8.0, 450 mM NaCl, 30% glycerol. Two cell volumes of extraction buffer were used, and particulate material was centrifuged out (20,800 g, 4° C., 10 minutes). The supernatant extract having deacetylase activity was aliquoted and frozen for storage.
as §1, §2, §3

The target in the next data set is MMP-12 (Homo sapiens, UniProt P39900). Put plainly: Matrix metalloprotease panel, single concentration. Format: biochemical. As to the method:
(§4) Several compounds were tested at a single concentration against a panel of matrix metalloproteases including angiotensin converting enzyme (ACE) and the percentage inhibition determined.

The next data set concerns the target T2, MMP-7 (Homo sapiens, UniProt P09237).
T2 sequence (P09237 95-267): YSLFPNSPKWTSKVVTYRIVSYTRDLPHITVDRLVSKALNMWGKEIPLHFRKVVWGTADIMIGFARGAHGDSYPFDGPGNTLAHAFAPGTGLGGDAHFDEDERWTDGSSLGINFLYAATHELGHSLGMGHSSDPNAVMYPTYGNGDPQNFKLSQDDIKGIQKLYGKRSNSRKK
Put plainly: Matrix metalloprotease panel, single concentration. Format: biochemical. As to the method: as §4

A further data set deals with MMP-13 (Homo sapiens, UniProt P45452). Put plainly: Matrix metalloprotease panel, single concentration. Format: biochemical. As to the method:
as §4

The target in a further data set is MMP-14 (Homo sapiens, UniProt P50281). Put plainly: Matrix metalloprotease panel, single concentration. Format: biochemical. As to the method:
as §4

In a further data set the target is T3, MMP-2 (Homo sapiens, UniProt P08253).
T3 sequence (P08253 110-660): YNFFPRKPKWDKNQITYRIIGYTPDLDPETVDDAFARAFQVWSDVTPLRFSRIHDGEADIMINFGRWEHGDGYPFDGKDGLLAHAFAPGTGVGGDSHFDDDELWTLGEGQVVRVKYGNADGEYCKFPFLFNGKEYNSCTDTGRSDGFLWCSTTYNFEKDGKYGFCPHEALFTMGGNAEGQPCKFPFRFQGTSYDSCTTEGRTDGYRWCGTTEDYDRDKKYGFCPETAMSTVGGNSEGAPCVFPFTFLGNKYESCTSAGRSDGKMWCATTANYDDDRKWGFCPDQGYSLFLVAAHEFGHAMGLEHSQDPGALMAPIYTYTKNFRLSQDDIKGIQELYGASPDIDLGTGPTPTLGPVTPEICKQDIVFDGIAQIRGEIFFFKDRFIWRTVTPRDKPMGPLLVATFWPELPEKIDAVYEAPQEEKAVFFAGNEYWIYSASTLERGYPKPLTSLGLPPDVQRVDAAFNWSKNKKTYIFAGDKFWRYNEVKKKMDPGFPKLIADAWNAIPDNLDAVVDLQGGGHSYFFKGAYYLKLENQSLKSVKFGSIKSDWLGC
Put plainly: Matrix metalloprotease panel, single concentration. Format: biochemical. As to the method: as §4

The target of a further data set is MMP-3 (Homo sapiens, UniProt P08254). Put plainly: Matrix metalloprotease panel, single concentration. The data set is classed as biochemical. As to the method: as §4
Sequence of MMP-3 (P08254 100-477, species assumed): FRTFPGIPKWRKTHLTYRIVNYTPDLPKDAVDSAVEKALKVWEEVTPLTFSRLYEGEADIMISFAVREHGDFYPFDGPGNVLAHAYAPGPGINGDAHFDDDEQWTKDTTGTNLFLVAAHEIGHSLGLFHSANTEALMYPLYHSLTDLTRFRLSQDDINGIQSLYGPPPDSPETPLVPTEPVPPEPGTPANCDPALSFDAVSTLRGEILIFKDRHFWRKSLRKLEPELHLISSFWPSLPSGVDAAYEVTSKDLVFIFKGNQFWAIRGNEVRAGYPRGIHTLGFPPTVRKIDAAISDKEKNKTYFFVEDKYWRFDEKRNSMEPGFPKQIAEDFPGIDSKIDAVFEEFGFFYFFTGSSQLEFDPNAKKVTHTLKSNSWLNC
The next data set addresses MMP-9 (Homo sapiens, UniProt P14780). Put plainly: Matrix metalloprotease panel, single concentration. Format: biochemical. As to the method: as §4
Data set [2] concerns the target angiotensin converting enzyme (ACE) (Homo sapiens, UniProt P12821). Put plainly: Matrix metalloprotease panel, single concentration. Format: biochemical. As to the method:
as §4

The next data set deals with MMP-10 (Homo sapiens, UniProt P09238). Put plainly: Matrix metalloprotease panel, single concentration. The data set is classed as biochemical. As to the method: as §4
Sequence of MMP-10 (P09238 99-476, species assumed): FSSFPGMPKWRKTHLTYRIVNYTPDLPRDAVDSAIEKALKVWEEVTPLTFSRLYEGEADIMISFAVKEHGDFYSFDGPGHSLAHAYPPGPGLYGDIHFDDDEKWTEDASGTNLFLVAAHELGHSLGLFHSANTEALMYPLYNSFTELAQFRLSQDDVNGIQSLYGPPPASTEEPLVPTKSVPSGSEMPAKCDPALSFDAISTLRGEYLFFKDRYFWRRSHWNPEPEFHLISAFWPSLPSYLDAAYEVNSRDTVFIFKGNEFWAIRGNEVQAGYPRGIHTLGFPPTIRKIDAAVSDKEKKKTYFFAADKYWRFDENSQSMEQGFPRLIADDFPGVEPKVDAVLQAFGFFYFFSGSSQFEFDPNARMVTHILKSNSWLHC
A further data set has as its target T4, MMP-1 (Homo sapiens, UniProt P03956).
T4 sequence (P03956 100-469): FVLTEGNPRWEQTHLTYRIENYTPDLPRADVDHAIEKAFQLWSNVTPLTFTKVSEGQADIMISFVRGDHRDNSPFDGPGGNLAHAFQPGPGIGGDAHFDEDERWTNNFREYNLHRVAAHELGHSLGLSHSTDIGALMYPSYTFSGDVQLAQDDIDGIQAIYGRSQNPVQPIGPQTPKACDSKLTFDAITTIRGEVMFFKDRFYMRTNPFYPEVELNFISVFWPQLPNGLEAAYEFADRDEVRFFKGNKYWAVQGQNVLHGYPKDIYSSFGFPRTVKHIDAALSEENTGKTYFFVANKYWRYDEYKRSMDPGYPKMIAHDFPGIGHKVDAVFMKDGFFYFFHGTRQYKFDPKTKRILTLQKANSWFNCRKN
Put plainly: Matrix metalloprotease panel, single concentration. Format: biochemical. As to the method: as §4

The next data set deals with MMP-8 (Homo sapiens, UniProt P22894). Put plainly: Matrix metalloprotease panel, single concentration. The data set is classed as biochemical. As to the method: as §4
Sequence of MMP-8 (P22894 101-467, species assumed): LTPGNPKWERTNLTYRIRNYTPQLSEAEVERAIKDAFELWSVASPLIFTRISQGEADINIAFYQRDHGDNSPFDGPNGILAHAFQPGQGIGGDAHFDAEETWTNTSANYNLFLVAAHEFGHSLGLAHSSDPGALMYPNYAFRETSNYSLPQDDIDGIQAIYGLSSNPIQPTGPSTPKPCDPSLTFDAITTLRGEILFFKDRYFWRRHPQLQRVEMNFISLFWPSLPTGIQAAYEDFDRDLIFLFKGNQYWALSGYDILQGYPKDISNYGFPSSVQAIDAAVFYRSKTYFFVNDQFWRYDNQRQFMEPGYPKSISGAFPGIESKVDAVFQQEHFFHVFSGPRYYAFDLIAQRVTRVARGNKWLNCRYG

Structures are written as SMILES.

Sequence of MMP-12 (P39900 106-470, species assumed): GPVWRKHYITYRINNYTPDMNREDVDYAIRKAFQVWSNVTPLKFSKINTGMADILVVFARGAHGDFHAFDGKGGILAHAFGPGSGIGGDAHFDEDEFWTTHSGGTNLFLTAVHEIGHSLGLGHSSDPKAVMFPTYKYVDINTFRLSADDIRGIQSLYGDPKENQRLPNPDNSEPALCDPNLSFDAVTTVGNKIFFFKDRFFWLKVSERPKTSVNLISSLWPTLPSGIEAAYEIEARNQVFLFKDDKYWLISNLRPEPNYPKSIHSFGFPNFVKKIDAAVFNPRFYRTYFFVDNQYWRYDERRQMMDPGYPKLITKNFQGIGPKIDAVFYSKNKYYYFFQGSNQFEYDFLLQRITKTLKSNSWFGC
Sequence of MMP-9 (P14780 94-707, species assumed): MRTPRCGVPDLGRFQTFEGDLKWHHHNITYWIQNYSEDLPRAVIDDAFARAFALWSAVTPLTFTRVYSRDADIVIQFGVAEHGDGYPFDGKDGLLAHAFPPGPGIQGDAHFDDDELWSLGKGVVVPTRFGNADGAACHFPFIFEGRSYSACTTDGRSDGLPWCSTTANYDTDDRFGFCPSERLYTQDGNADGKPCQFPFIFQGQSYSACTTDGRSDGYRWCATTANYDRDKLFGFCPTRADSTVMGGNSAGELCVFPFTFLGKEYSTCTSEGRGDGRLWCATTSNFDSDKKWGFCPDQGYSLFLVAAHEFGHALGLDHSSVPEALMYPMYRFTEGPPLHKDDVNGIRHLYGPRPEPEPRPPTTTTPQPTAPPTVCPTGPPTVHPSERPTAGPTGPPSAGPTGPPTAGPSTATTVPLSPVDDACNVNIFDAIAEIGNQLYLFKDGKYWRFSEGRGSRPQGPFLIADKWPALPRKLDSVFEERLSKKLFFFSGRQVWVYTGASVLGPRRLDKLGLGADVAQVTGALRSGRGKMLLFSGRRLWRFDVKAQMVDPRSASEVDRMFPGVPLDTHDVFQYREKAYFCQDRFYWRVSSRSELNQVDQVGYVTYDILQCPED
Sequence of angiotensin converting enzyme (ACE) (P12821 30-1306, species assumed): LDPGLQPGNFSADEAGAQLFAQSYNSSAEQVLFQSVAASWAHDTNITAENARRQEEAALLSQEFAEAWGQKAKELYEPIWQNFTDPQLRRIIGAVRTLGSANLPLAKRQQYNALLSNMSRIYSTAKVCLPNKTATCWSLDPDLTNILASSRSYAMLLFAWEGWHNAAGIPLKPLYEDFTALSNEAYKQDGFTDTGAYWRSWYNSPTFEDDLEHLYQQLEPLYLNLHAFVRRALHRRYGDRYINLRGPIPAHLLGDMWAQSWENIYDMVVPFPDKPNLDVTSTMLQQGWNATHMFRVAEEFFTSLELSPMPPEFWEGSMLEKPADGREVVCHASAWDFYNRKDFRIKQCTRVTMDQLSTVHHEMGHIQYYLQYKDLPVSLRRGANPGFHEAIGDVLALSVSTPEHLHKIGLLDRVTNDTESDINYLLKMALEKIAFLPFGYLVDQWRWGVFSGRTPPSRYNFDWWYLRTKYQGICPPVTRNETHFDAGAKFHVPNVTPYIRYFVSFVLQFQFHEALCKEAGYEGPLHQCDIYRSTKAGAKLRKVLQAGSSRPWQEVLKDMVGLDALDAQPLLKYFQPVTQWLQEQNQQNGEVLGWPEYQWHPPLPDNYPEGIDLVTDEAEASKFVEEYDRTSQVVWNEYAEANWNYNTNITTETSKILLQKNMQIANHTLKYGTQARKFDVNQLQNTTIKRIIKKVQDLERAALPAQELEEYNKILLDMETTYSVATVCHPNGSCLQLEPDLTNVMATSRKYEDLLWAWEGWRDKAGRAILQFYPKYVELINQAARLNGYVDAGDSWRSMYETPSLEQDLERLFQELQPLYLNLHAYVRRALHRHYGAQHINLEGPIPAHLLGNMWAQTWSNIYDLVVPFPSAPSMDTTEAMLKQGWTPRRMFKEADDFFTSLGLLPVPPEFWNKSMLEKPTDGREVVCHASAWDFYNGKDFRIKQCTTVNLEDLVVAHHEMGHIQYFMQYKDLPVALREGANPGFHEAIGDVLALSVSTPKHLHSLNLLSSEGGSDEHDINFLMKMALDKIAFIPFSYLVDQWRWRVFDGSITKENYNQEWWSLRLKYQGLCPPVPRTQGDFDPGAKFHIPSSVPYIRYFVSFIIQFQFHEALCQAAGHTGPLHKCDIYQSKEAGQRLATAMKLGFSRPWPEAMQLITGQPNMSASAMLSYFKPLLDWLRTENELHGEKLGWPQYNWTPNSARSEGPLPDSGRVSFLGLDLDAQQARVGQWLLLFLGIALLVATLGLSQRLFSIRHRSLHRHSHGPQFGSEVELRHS

As for `O=C(CC1c2ccccc2S(=O)(=O)N1c1cccc(CO)c1)NO` (centres unmarked) [IX-075], the inhibition at 100 µM in data set [1] amounted to 64%. Besides, the “Av. HDAC Inhibition, % @100” value in the data set on HDAC (HeLa cell extract) amounted to 2%@100.

Consider `COc1ccc2c(c1)C(CC(=O)NO)N(c1ccccc1)S2(=O)=O` (centres unmarked) [IX-068], for which the “Av. HDAC Inhibition, % @100” value in the data set on HDAC (HeLa cell extract) is listed as 44%@100.

On to `O=C(C[C@@H]1c2ccccc2S(=O)(=O)N1c1ccccc1)NO` [IX-003], for which the “Av. HDAC Inhibition, % @100” value with HDAC (HeLa cell extract) was 44%@100.

As to `CC#CCOc1ccc(N2C(CC(=O)NO)c3ccccc3S2(=O)=O)cc1` (centres unmarked) [IX-045], in the data set with HDAC (HeLa cell extract), the “Av. HDAC Inhibition, % @100” value turned out to be 38%@100. Further, the inhibition at 5 µM at MMP-12 was 37%; against MMP-7 it was -5%; against MMP-13 it was -12%; against MMP-14, 0%; against MMP-2 it was 10%; against MMP-3, 11%. Moreover, the inhibition at 5 µM was -2% against MMP-9; -8% in data set [2]; 6% against MMP-10; -4% against MMP-1; 21% against MMP-8.

Regarding `O=C(CC1c2ccccc2S(=O)(=O)N1c1ccccc1)NO` (centres unmarked) [IX-001], the “Av. HDAC Inhibition, % @100” value in the data set with HDAC (HeLa cell extract) is given as 10%@100. Also, the inhibition at 5 µM against MMP-12 came out at 56%; on MMP-7, 0%; at MMP-13 it was 24%; against MMP-14, 2%; against MMP-2, 19%; against MMP-3 it was 1%. In addition, the inhibition at 5 µM at MMP-9 is 19%; in data set [2], 6%; on MMP-10 it was 0%; against MMP-1 it was 0%; against MMP-8, 30%.

In the case of `Cc1cc(COc2ccc(N3C(CC(=O)NO)c4ccccc4S3(=O)=O)cc2)c2ccccc2n1` (centres unmarked) [IX-048], the melting point was 195 to 197 °C. Further, in the data set with HDAC (HeLa cell extract), the “Av. HDAC Inhibition, % @100” value is 19%@100. At MMP-12, the inhibition at 5 µM worked out at 49%. Moreover, the inhibition at 5 µM at MMP-7 was 31%. Moreover, the inhibition at 5 µM against MMP-13 is -10%. In addition, the inhibition at 5 µM against MMP-14 was 4%. For the same compound, the inhibition at 5 µM at MMP-2 was -3%. The inhibition at 5 µM against MMP-3 worked out at 34%. Besides, the inhibition at 5 µM against MMP-9 is -8%. The inhibition at 5 µM in data set [2] is -4%. The inhibition at 5 µM against MMP-10 was found to be 9%. Moreover, the inhibition at 5 µM on MMP-1 came out at 6%. The inhibition at 5 µM at MMP-8 amounted to 13%.

For the compound `CCOc1ccc2c(c1)C(CC(=O)NO)N(c1ccccc1)S2(=O)=O` (centres unmarked) [IX-078], the EC50 with HDAC (HeLa cell extract) (15 μM acetylated substrate, 1 hour at 37° C., read-out: Av. HDAC Inhibition EC50) is 23.7 µM.

On to `COc1ccc(N2C(CC(=O)NO)c3ccccc3S2(=O)=O)cc1` (centres unmarked) [IX-010], for which, in the data set on HDAC (HeLa cell extract), the “Av. HDAC Inhibition, % @100” value is reported as 17%@100.

Take `O=C(CC1c2ccccc2S(=O)(=O)N1c1ccc2ccccc2c1)NO` (centres unmarked) [IX-004]: the “Av. HDAC Inhibition, % @100” value in the data set on HDAC (HeLa cell extract) worked out at 32%@100.

Take `CCCCOc1ccc(N2C(CC(=O)NO)c3ccccc3S2(=O)=O)cc1` (centres unmarked) [IX-036]: the “Av. HDAC Inhibition, % @100” value in the data set on HDAC (HeLa cell extract) was −4%@100.

On to `COc1cccc(N2C(CC(=O)NO)c3ccccc3S2(=O)=O)c1` (centres unmarked) [IX-009], for which, in data set [1], the inhibition at 100 µM came to 52%. Moreover, the “Av. HDAC Inhibition, % @100” value in the data set on HDAC (HeLa cell extract) is 24%@100.
